# Laboratory results as given in patent US8168667B2 (Galapagos NV, priority 2006, dated 2012).
# Read-outs that look alike come from different tables or passages of the source.
# What was measured:
# [1] = tested on: castrated C57/B16J male mice; assay: Model of osteoporosis in male mice (trabecular BMD of tibia); format: in vivo; conditions: Mus musculus, sc, 672 h, ORX mice, 30 mg/kg subcutaneously daily, day 1 to 28, ORX = 0%, SHAM = 100%, read-out: efficacy in protecting mineral bone density
# Procedure: C57/B16J male mice aged 12 weeks and weighing approximately 20-25 g (Charles River, Les Oncins, FRANCE) were operated on as described above with regard to the rats. Castration mimicked the bone loss caused by androgen deficit. The aim of the study is to evaluate the capacity of the compounds to preserve and/or increase the bone mass. This is evaluated by measuring the bone mineral density (BMD). This model has previously been documented by Sims et al. 2003 J. Clin. Invest. 111(9):1319-27.
# The animals were separated randomly into various groups and were kept in an environment at 22±2° C. with an alternating day/night cycle of 12 hours and ad libitum access to food and drink.
# The tested compounds were administered from post-surgery day 1 and until day 28 preceding sacrifice (day 29). The mice were treated daily under the conditions defined below: • 1. SHAM control group: Vehicle (10/90 ethanol/corn oil mixture) administered subcutaneously. • 2. ORX control group: Vehicle (10/90 ethanol/corn oil mixture) administered subcutaneously. • 3. Treated ORX group: The tested compounds were administered individually subcutaneously in the vehicle described above, in a dose of 30 mg/kg.
# During necropsy, the mice were first weighed then decapitated. The two hindlimbs were then carefully disarticulated at the femoral neck. The right hindlimb was frozen at −20° C. Densitometric quantitative analysis was performed on the trabecular portion of the tibia proximal metaphysis using a tomo densitometer (Stratec SA+, Hologic, Norland).
# The average of the trabecular BMD of the mice in the ORX control group was defined as 0%. The average of the trabecular BMD of the mice in the SHAM control group was defined as 100%. The efficacy of each product as a percentage was calculated using the formula: (BMDtreated−BMDORX)/(BMDSHAM−BMDORX)×100
# A subsequent ANOVA test was used for statistical analysis to identify the differences between groups.
# [2] = tested on: castrated immature young rats; assay: Adapted model of Hershberger's test (levator ani and ventral prostate weight); format: in vivo, Sprague Dawley rats; conditions: Rattus norvegicus, po, 96 h
# Procedure: The selective modulating activity of the androgen receptor was tested in a model of castrated immature young rats. This model, which is widely recognised for evaluating the anabolic effects of androgen compounds on the muscles and on the genitalia, has been described by Hershberger et al. 1953 Proc. Soc. Expt. Biol. Med. 83:175.
# The method is based on the measurement of the well-known effects of androgens on the growth of the muscles and the accessory male sex organs in animals, and also in men. The consequences of castration appear in the form of a rapid involution and atrophy of the prostate and the seminal vesicles and of the anus-lifting muscle (levator ani). This effect may be completely compensated by an exogeneous administration of androgen, in particular of testosterone. The model is thus used to determine the capacity of the tested molecules to maintain the weight of the accessory sex and muscle organs in immature castrated rats, and therefore their androgenic efficacy.
# Immature young Sprague Dawley rats (4 to 5 weeks old) weighing approximately 140-160 g (Charles River, Les Oncins, FRANCE) were distributed randomly in various groups and were kept in an environment at 22±2° C. with an alternating day/night cycle of 12 hours and ad libitum access to food and drink.
# On day 0, that is, seven days before commencement of the first treatment, the rats were weighed individually then anaesthetised with an intraperitoneal dose of Ketamine/xylazine (85/15 mg/kg, approximately 2 ml/kg). Each animal was then placed on a sterile field and the abdomen and the scrotum were disinfected with Betadine and 70% alcohol. In the case of the orchidectomised control animals (ORX), the testicles were removed via an incision in the middle of the scrotum. A sterile suture was then made to ligature the supra-testicular portion of the tissue prior to surgical section of each testicle. The groups of animals to be treated by the tested compounds were operated on in an identical manner. In the case of the intact control animals (SHAM), the testicles were similarly extracted and reintroduced delicately to their original location. The site of surgical intervention was then sutured using sterile suture thread, and the site was disinfected again by application of Betadine. Each animal was then kept under a sterile pad until it awoke, before being returned to its cage. The animals were kept in an environment at 22±2° C. with an alternating day/night cycle of 12 hours and ad libitum access to food and drink. The animals were treated with the molecules to be tested from post-surgery day 7 and until day 10 preceding sacrifice (day 11).
# The rats were split into groups and treated daily from day 7 to day 10 under the conditions defined below: • 1. SHAM control group: Vehicle (0.5% aqueous methyl cellulose) administered per os. • 2. ORX control group: Vehicle (0.5% aqueous methyl cellulose) administered per os. • 3. Treated ORX group: The tested compounds were administered individually per os in suspension in the vehicle described above, in a dose of 30 mg/kg.
# After treatment for 4 successive days, the animals were decapitated using a guillotine. The levator ani and the ventral prostate were removed and weighed individually. For comparing inter-experimental data, the weight of each organ was standardised and expressed in milligrammes per 100 g of the weight of the animal (W). For each organ, the average of the standardised weights of the ORX control group was fixed by definition at 0% and the average of the standardised weights of the SHAM control group was fixed by definition at 100%. The efficacy of each product was expressed as a percentage and calculated using the following formula: (Wtreated−WORX)/(WSHAM−WORX)×100 A subsequent ANOVA test was used for statistical analysis to identify the differences between groups.
# [3] = molecular target: T1, human androgen receptor (hAR) (Homo sapiens, UniProt P10275); assay: Functional response test: hAR transactivation (luciferase reporter) in HALP2 cells; format: cell-based
# T1 sequence (P10275 1-920): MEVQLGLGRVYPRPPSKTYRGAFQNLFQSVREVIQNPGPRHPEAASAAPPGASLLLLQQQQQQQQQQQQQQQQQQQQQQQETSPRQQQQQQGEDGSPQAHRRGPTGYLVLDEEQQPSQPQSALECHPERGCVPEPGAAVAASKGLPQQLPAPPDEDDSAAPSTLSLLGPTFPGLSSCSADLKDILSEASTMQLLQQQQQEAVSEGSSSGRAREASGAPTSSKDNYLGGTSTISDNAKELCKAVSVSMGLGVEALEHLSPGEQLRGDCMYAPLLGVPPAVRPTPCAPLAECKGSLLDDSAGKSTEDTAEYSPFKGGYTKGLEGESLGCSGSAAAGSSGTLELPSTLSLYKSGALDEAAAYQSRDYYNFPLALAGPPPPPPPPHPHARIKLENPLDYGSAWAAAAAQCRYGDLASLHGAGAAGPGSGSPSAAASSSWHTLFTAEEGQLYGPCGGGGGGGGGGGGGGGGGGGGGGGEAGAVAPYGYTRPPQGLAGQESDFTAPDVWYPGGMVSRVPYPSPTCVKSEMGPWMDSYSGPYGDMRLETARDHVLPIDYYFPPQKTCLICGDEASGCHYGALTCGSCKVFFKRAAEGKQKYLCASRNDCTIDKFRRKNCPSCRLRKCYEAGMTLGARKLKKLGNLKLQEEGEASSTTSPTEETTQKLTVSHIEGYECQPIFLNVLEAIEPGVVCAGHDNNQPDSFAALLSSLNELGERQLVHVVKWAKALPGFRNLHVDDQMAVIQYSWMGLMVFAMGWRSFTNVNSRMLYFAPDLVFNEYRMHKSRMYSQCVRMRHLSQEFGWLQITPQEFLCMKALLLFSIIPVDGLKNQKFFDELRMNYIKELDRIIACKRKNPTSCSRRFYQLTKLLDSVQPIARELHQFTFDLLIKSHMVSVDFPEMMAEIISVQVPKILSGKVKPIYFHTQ
# Outline: (§1)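 HALP2 cells are HeLa cells stably transfected with CMV-driven hAR and a probasin ARE-luciferase reporter. They were seeded 24 h ahead, then exposed to compounds for 20 hours at 37° C in phenol red-free DMEM with 5% desteroided serum. Luciferase luminescence was measured after lysis; for antagonist mode, compounds were tested against increasing DHT concentrations.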
# [4] = molecular target: human androgen receptor (hAR) (Homo sapiens, UniProt P10275); assay: Functional response test: hAR transactivation (luciferase reporter) in HALP2 cells; format: cell-based; remark: listed apart in the source
# Outline: as §1
# [5] = read-out: anabolic protection efficacy with regard to levator ani
# [6] = read-out: androgenic efficacy with regard to the prostate
SMILES,"inhibition in vivo at 30 mg/kg [2, 5] [%]","inhibition in vivo at 30 mg/kg [2, 6] [%]",melting point [°C],KSchild (nM) potency [3] [nM],further results
"Cc1c(N2C(=O)N(C)C(C)(c3ccc(O)cc3)C2=O)ccc(C#N)c1Cl (stereo not drawn) [Example 8, 2-chloro-4-[3,4-dimethyl-2,5-dioxo-4-(4-hydroxyphenyl)imidazolidin-1-yl]-3-methylbenzonitrile]",50 to 140,5 to 70,–,–,inhibition in vivo at 30 mg/kg [1]: 40 to 130%
"CN1C(=O)N(c2ccc(Cl)c(Cl)c2)C(=O)C1(CO)c1ccc(O)cc1 (stereo not drawn) [Example 175, 1-(3,4-dichlorophenyl)-4-hydroxymethyl-4-(4-hydroxyphenyl)-3-methylimidazolidine-2,5-dione]",–,–,215.6,–,"EC50 ([3]; agonism, HALP2 cells (HeLa, hAR + ARE-luciferase), 20 hours at 37° C.): 1.38 nM; KSchild (nM) potency ([3]; antagonism, concentration which increases the EC50 of the DHT by a factor of 2, Schild regression, HALP2 cells): 0.37 nM; inhibition in vivo at 30 mg/kg ([2]; ORX rats, 30 mg/kg per os, 4 successive days, ORX = 0%, SHAM = 100%, read-out: anabolic protection efficacy with regard to levator ani): 50 to 140%; inhibition in vivo at 30 mg/kg ([2]; ORX rats, 30 mg/kg per os, 4 successive days, ventral prostate, ORX = 0%, SHAM = 100%, read-out: androgenic efficacy with regard to the prostate): 5 to 70%"
CC1(c2ccc(O)cc2)C(=O)N(c2ccc(Cl)c(Cl)c2)C(=O)N1CCF (stereo not drawn),–,–,–,–,EC50 [4]: 8 nM
"C=CCN1C(=S)N(c2ccc(C#N)c(C(F)(F)F)c2)C(=O)C1(C)c1ccc(O)cc1 (stereo not drawn) [Example 7, 4-[4-(4-hydroxyphenyl)-4-methyl-5-oxo-3-(2-propenyl)-2-thioxoimidazolidin-1-yl]-2-trifluoromethylbenzonitrile]",–,–,–,3.46,inhibition in vivo at 30 mg/kg [1]: 40 to 130%
"COCN1C(=O)N(c2ccc(C#N)c(C(F)(F)F)c2)C(=O)[C@@]1(C)c1ccc(O)cc1 [Example 222.1, (R)-4-[2,5-dioxo-4-(4-hydroxyphenyl)-3-methoxymethyl-4-methylimidazolidin-1-yl]-2-trifluoromethylbenzonitrile]",50 to 140,5 to 70,97,4,–
"COc1cc(N2C(=O)N(C)[C@](C)(c3ccc(O)cc3)C2=O)ccc1C#N [Example 156.2, (R)-4-[3,4-dimethyl-2,5-dioxo-4-(4-hydroxyphenyl)imidazolidin-1-yl]-2-methoxybenzonitrile]",50 to 140,5 to 70,100,1.5,–
"C#CCC1(c2ccc(O)cc2)C(=O)N(c2ccc(C#N)c(C(F)(F)F)c2)C(=O)N1C (stereo not drawn) [Example 177.3, 4-[2,5-dioxo-4-(4-hydroxyphenyl)-3-methyl-4-(2-propynyl)imidazolidin-1-yl]-2-trifluoromethylbenzonitrile]",–,–,122,15,–
